According to ChEMBL document CHEMBL1641455, “Discovery of novel ureas and thioureas of 3-decladinosyl-3-hydroxy 15-membered azalides active against efflux-mediated resistant Streptococcus pneumoniae” (2011):
Values after ≈ are worked out from the molar mass of the structure shown.

Experiments:
Format in all cases: functional
Streptococcus pneumoniae [1] = assay: Antimicrobial activity against erythromycin-susceptible Streptococcus pneumoniae after 16 to 22 hrs by broth microdilution method
Staphylococcus aureus = assay: Antimicrobial activity against Staphylococcus aureus ATCC 29213 after 16 to 22 hrs by broth microdilution method
Haemophilus influenzae = assay: Antimicrobial activity against Haemophilus influenzae ATCC 49247 after 16 to 22 hrs by broth microdilution method
Enterococcus faecalis = assay: Antimicrobial activity against Enterococcus faecalis ATCC 29212 after 16 to 22 hrs by broth microdilution method
Streptococcus pyogenes [2] = assay: Antimicrobial activity against erythromycin-susceptible Streptococcus pyogenes after 16 to 22 hrs by broth microdilution method
Streptococcus pneumoniae [3] = assay: Antimicrobial activity against macrolide-resistant erythromycin-Streptococcus pneumoniae after 16 to 22 hrs by broth microdilution method
Escherichia coli = assay: Antimicrobial activity against Escherichia coli ATCC 25922 after 16 to 22 hrs by broth microdilution method
Moraxella catarrhalis = assay: Antimicrobial activity against Moraxella catarrhalis ATCC 23246 after 16 to 22 hrs by broth microdilution method
Streptococcus pyogenes [4] = assay: Antimicrobial activity against macrolide-resistant erythromycin-Streptococcus pyogenes after 16 to 22 hrs by broth microdilution method
[5] = Streptococcus pneumoniae, read-out: MIC
[6] = Staphylococcus aureus, ATCC 29213, read-out: MIC
[7] = Haemophilus influenzae, ATCC 49247, read-out: MIC
[8] = Streptococcus pyogenes, read-out: MIC
[9] = Escherichia coli, ATCC 25922, read-out: MIC

Structure (SMILES) | MIC (Streptococcus pneumoniae [1]; [5]) [µg/mL] | MIC (Staphylococcus aureus; [6]) [µg/mL] | MIC (Haemophilus influenzae; [7]) [µg/mL] | MIC (Enterococcus faecalis) [µg/mL] | MIC (Streptococcus pyogenes [2]; [8]) [µg/mL] | MIC (Streptococcus pneumoniae [3]; [5]) [µg/mL] | MIC (Escherichia coli; [9]) [µg/mL] | MIC (Moraxella catarrhalis) [µg/mL] | MIC (Streptococcus pyogenes [4]; [8]) [µg/mL] | MIC (Staphylococcus aureus) [µg/mL] | MIC (Haemophilus influenzae) [µg/mL] | MIC (Streptococcus pneumoniae [3]) [µg/mL] | MIC (Escherichia coli) [µg/mL] | MIC (Streptococcus pyogenes [4]) [µg/mL] | MIC (Streptococcus pneumoniae [1]) [µg/mL] | MIC (Streptococcus pyogenes [2]) [µg/mL]
CC[C@H]1OC(=O)[C@H](C)[C@@H](O)[C@H](C)[C@@H](O[C@@H]2O[C@H](C)C[C@H](N(C)C)[C@H]2O)[C@](C)(O)C[C@@H](C)CN(CCCNC(=O)Nc2cccc3ccccc23)[C@H](C)[C@@H](O)[C@]1(C)O | 1 (≈ 1.25 µM) | > 64 | 2 (≈ 2.49 µM) | 32 (≈ 39.8 µM) | 2 (≈ 2.49 µM) | 8 (≈ 9.96 µM) | 8 (≈ 9.96 µM) | 2 (≈ 2.49 µM) | 16 (≈ 19.9 µM) |  |  |  |  |  |  | 
CC[C@H]1OC(=O)[C@H](C)[C@@H](O)[C@H](C)[C@@H](O[C@@H]2O[C@H](C)C[C@H](N(C)C)[C@H]2O)[C@](C)(O)C[C@@H](C)CN(CCCNC(=S)Nc2cccc3ccccc23)[C@H](C)[C@@H](O)[C@]1(C)O | 1 (≈ 1.22 µM) | > 64 | 4 (≈ 4.88 µM) | 32 (≈ 39.1 µM) | 8 (≈ 9.77 µM) | 2 (≈ 2.44 µM) | 16 (≈ 19.5 µM) | 0.5 (≈ 0.61 µM) | 64 (≈ 78.1 µM) |  |  |  |  |  |  | 
CC[C@H]1OC(=O)[C@H](C)[C@@H](O)[C@H](C)[C@@H](O[C@@H]2O[C@H](C)C[C@H](N(C)C)[C@H]2O)[C@](C)(O)C[C@@H](C)CN(CCCNC(=S)NCCc2ccccc2)[C@H](C)[C@@H](O)[C@]1(C)O | 4 (≈ 5.02 µM) | > 64 | 16 (≈ 20.1 µM) | 64 (≈ 80.3 µM) | 32 (≈ 40.1 µM) | 16 (≈ 20.1 µM) | 64 (≈ 80.3 µM) | 4 (≈ 5.02 µM) | 64 (≈ 80.3 µM) |  |  |  |  |  |  | 
CC[C@H]1OC(=O)[C@H](C)[C@@H](O)[C@H](C)[C@@H](O[C@@H]2O[C@H](C)C[C@H](N(C)C)[C@H]2O)[C@](C)(O)C[C@@H](C)CN(CCCN(CCC#N)C(=O)Nc2cccc3ccccc23)[C@H](C)[C@@H](O)[C@]1(C)O | 16 (≈ 18.7 µM) | > 64 | 32 (≈ 37.4 µM) | > 64 | 16 (≈ 18.7 µM) | 64 (≈ 74.8 µM) | 64 (≈ 74.8 µM) | 8 (≈ 9.34 µM) | 64 (≈ 74.8 µM) |  |  |  |  |  |  | 
CC[C@H]1OC(=O)[C@H](C)[C@@H](O)[C@H](C)[C@@H](O[C@@H]2O[C@H](C)C[C@H](N(C)C)[C@H]2O)[C@](C)(O)C[C@@H](C)CN(CCCN(CCC#N)C(=O)Nc2ccc3ccccc3c2)[C@H](C)[C@@H](O)[C@]1(C)O |  | > 64 | 2 (≈ 2.34 µM) | 32 (≈ 37.4 µM) | 8 (≈ 9.34 µM) | 4 (≈ 4.67 µM) | 16 (≈ 18.7 µM) | 2 (≈ 2.34 µM) | 16 (≈ 18.7 µM) |  |  |  |  |  |  | 
CC[C@H]1OC(=O)[C@H](C)[C@@H](O)[C@H](C)[C@@H](O[C@@H]2O[C@H](C)C[C@H](N(C)C)[C@H]2O)[C@](C)(O)C[C@@H](C)CN(CCCN(CCC#N)C(=O)Nc2ccc(Cl)cc2Cl)[C@H](C)[C@@H](O)[C@]1(C)O |  | > 64 | 16 (≈ 18.3 µM) | > 64 | > 64 | 8 (≈ 9.14 µM) | > 64 | 8 (≈ 9.14 µM) |  |  |  |  |  |  |  | 
CC[C@H]1OC(=O)[C@H](C)[C@@H](O)[C@H](C)[C@@H](O[C@@H]2O[C@H](C)C[C@H](N(C)C)[C@H]2O)[C@](C)(O)C[C@@H](C)CN(CCCN(CCC#N)C(=S)NCc2ccccc2)[C@H](C)[C@@H](O)[C@]1(C)O |  | > 64 | 8 (≈ 9.57 µM) | > 64 | > 64 | 16 (≈ 19.1 µM) | > 64 | 2 (≈ 2.39 µM) |  |  |  |  |  |  |  | 
CC[C@H]1OC(=O)[C@H](C)[C@@H](O)[C@H](C)[C@@H](O[C@@H]2O[C@H](C)C[C@H](N(C)C)[C@H]2O)[C@](C)(O)C[C@@H](C)CN(CCCN(CCC#N)C(=S)NCCc2ccccc2)[C@H](C)[C@@H](O)[C@]1(C)O |  | > 64 | 32 (≈ 37.6 µM) | > 64 | > 64 | 16 (≈ 18.8 µM) | > 64 | 8 (≈ 9.41 µM) |  |  |  |  |  |  |  | 
CC[C@H]1OC(=O)[C@H](C)[C@@H](O)[C@H](C)[C@@H](O[C@@H]2O[C@H](C)C[C@H](N(C)C)[C@H]2O)[C@](C)(O)C[C@@H](C)CN(CCCN(CCC#N)C(=S)NCCCc2ccccc2)[C@H](C)[C@@H](O)[C@]1(C)O |  | > 64 | 8 (≈ 9.26 µM) | > 64 | 32 (≈ 37 µM) | 16 (≈ 18.5 µM) | > 64 | 8 (≈ 9.26 µM) | 64 (≈ 74.1 µM) |  |  |  |  |  |  | 
CC[C@H]1OC(=O)[C@H](C)[C@@H](O)[C@H](C)[C@@H](O[C@@H]2O[C@H](C)C[C@H](N(C)C)[C@H]2O)[C@](C)(O)C[C@@H](C)CN(CCCNC(=O)NC(C)c2cccc3ccccc23)[C@H](C)[C@@H](O)[C@]1(C)O (mixture of isomers) | < 0.125 | 16 | 4 | 8 | < 0.125 | 16 | 16 | 4 | 16 |  |  |  |  |  |  | 
CC[C@H]1OC(=O)[C@H](C)[C@@H](O)[C@H](C)[C@@H](O[C@@H]2O[C@H](C)C[C@H](N(C)C)[C@H]2O)[C@](C)(O)C[C@@H](C)CN(CCCN(CCC#N)C(=O)NC(C)c2cccc3ccccc23)[C@H](C)[C@@H](O)[C@]1(C)O (mixture of isomers) | 4 | > 64 | 16 | 64 | 4 | 8 | > 64 | 4 | > 64 |  |  |  |  |  |  | 
CC[C@H]1OC(=O)[C@H](C)[C@@H](O[C@H]2C[C@@](C)(OC)[C@@H](O)[C@H](C)O2)[C@H](C)[C@@H](O[C@@H]2O[C@H](C)C[C@H](N(C)C)[C@H]2O)[C@](C)(O)C[C@@H](C)CN(C)[C@H](C)[C@@H](O)[C@]1(C)O (stereo in doubt; 1) [AZITHROMYCIN] |  |  |  | 8 (≈ 10.7 µM) |  |  |  | < 0.125 |  | 0.5 (≈ 0.668 µM) | 1 (≈ 1.34 µM) | 8 (≈ 10.7 µM) | 2 (≈ 2.67 µM) | 4 (≈ 5.34 µM) |  | 
CC[C@H]1OC(=O)[C@H](C)[C@@H](O[C@H]2C[C@@](C)(OC)[C@@H](O)[C@H](C)O2)[C@H](C)[C@@H](O[C@@H]2O[C@H](C)C[C@H](N(C)C)[C@H]2O)[C@](C)(O)C[C@@H](C)CN(C)[C@H](C)[C@@H](O)[C@]1(C)O (stereo in doubt; 2) [AZITHROMYCIN] |  |  |  |  |  |  |  |  |  | >64 | 16 (≈ 21.4 µM) | >64 | 16 (≈ 21.4 µM) | >64 | >64 | >64
